Results on 18 compounds are retold here after patent publication US11702404B2, “GLP-1R modulating compounds” (priority 2019, dated 2023).

One series has as its target GLP-1R (Homo sapiens, UniProt P43220). The experiment in a line: GLP-1R activation: cAMP increase in CHO cells stably expressing GLP-1R. In kind it is cell-based. The settings on record: cAMP increase, CHO cells stably expressing GLP-1R, 10 point dose response, 30 minutes incubation; read-out: EC50.
Series [1] in a line: Microsomal stability, human liver microsomes (predicted hepatic clearance). Conditions: predicted from in vitro microsomal stability data.

GLP-1R, sequence (P43220 24-463): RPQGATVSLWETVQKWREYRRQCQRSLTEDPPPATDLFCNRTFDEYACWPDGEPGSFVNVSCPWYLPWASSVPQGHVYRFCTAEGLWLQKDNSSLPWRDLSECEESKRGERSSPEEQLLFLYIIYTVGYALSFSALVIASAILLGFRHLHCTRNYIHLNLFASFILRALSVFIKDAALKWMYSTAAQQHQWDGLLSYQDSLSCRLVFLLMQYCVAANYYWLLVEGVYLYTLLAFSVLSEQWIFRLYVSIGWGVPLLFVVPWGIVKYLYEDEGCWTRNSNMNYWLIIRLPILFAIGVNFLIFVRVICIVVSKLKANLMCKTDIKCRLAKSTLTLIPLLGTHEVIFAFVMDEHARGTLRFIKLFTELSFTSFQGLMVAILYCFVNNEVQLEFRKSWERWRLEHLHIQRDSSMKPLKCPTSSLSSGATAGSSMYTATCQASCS

Usually EC50 stands for the concentration at which the effect is half-maximal. For the compound `COCCn1c(Cc2ccc(-c3cccc(OCc4ccc(C#N)cc4F)n3)c(N)c2)nc2ccc(C(=O)O)cc21` [Example 259, 2-(3-amino-4-(6-((4-cyano-2-fluorobenzyl)oxy)pyridin-2-yl)benzyl)-1-(2-methoxyethyl)-1H-benzo[d]imidazole-6-carboxylic acid], on GLP-1R, the EC50 stood at 66.9 nM. In series [1], the “Predicted Hepatic Clearance (Pred. Cl.)” value is 3.3 mL/min/kg.
Turning to `N#Cc1ccc(COc2cccc(-c3ccc(Cc4nc5ccc(C(=O)O)cc5n4C[C@@H]4CCCO4)cc3F)n2)c(F)c1` [Example 834], the EC50 on GLP-1R came to 0.69 nM. Besides, the “Predicted Hepatic Clearance (Pred. Cl.)” value in series [1] is 6.33 mL/min/kg.
In the same order, the values of `COCCn1c(Cc2c(F)cc(-c3cccc(OCc4ccc(Cl)nc4)n3)cc2F)nc2ccc(C(=O)O)cc21` [Example 654] are 24.9 nM and 3.5 mL/min/kg.
In the case of `N#Cc1ccc(COc2cccc(-c3ccc(Cc4nc5ccc(C(=O)O)nc5n4CC4(CF)CC4)c(F)c3)n2)c(F)c1` [Example 355, 2-(4-(6-((4-cyano-2-fluorobenzyl)oxy)pyridin-2-yl)-2-fluorobenzyl)-3-((1-(fluoromethyl)cyclopropyl)methyl)-3H-imidazo[4,5-b]pyridine-5-carboxylic acid], at GLP-1R, the EC50 was found to be 0.97 nM. In series [1], the “Predicted Hepatic Clearance (Pred. Cl.)” value was 3.3 mL/min/kg.
Consider `COCCn1c(Cc2ccc(-c3ccc(C#N)c(OCc4ccc(C#N)cc4F)n3)cc2F)nc2ccc(C(=O)O)cc21` [Example 86, 2-(4-(5-cyano-6-((4-cyano-2-fluorobenzyl)oxy)pyridin-2-yl)-2-fluorobenzyl)-1-(2-methoxyethyl)-1H-benzo[d]imidazole-6-carboxylic acid], for which the EC50 on GLP-1R came to 274 nM. In series [1], the “Predicted Hepatic Clearance (Pred. Cl.)” value is less than 1.83 mL/min/kg.
For `COCCn1c(Cc2ccc(-c3cccc(OCc4cccc5c4OC(C)(C)C5)n3)cc2F)nc2ccc(C(=O)O)cc21` [Example 152, 2-(4-(6-((2,2-dimethyl-2,3-dihydrobenzofuran-7-yl)methoxy)pyridin-2-yl)-2-fluorobenzyl)-1-(2-methoxyethyl)-1H-benzo[d]imidazole-6-carboxylic acid], in that order: 130 nM and 12 mL/min/kg.
With `O=C(O)c1ccc2nc(Cc3cc(F)c(-c4cccc(OCc5ccc(C(F)(F)F)cc5)n4)cc3F)n(C[C@@H]3CCO3)c2c1` [Example 517, (S)-2-(2,5-difluoro-4-(6-((4-(trifluoromethyl)benzyl)oxy)pyridin-2-yl)benzyl)-1-(oxetan-2-ylmethyl)-1H-benzo[d]imidazole-6-carboxylic acid], the EC50 on GLP-1R was determined as 0.06 nM. Also, the “Predicted Hepatic Clearance (Pred. Cl.)” value in series [1] is less than 1.83 mL/min/kg.
In the same order, the values of `COCCn1c(Cc2cc(F)c(-c3cccc(OCc4ccc(OC)nc4)n3)cc2F)nc2ccc(C(=O)O)cc21` [Example 866, 2-[[2,5-difluoro-4-[6-[(6-methoxy-3-pyridyl)methoxy]-2-pyridyl]phenyl]methyl]-3-(2-methoxyethyl)benzimidazole-5-carboxylic acid] are 16.1 nM and 8.17 mL/min/kg.
`O=C(O)c1cc(F)c2nc(Cc3ccc(-c4cccc(OCc5ccc(C(F)F)cc5F)n4)cc3F)n(C[C@@H]3CCO3)c2c1` [Example 648]: the EC50 at GLP-1R was 0.09 nM. In addition, the “Predicted Hepatic Clearance (Pred. Cl.)” value in series [1] is 2.33 mL/min/kg.
As for `N#Cc1ccc(COc2nccc(-c3cc(F)c(Cc4nc5ccc(C(=O)O)cc5n4C[C@@H]4CCO4)c(F)c3)n2)c(F)c1` [Example 121, (S)-2-(4-(2-((4-cyano-2-fluorobenzyl)oxy)pyrimidin-4-yl)-2,6-difluorobenzyl)-1-(oxetan-2-ylmethyl)-1H-benzo[d]imidazole-6-carboxylic acid], the EC50 on GLP-1R is 0.66 nM. Besides, in series [1], the “Predicted Hepatic Clearance (Pred. Cl.)” value is 2.67 mL/min/kg.
In the same order, the values of `COCCn1c(Cc2ccc(-c3cccc(OCc4ccc(C#N)cc4F)n3)cc2NS(C)(=O)=O)nc2ccc(C(=O)O)cc21` [Example 66, 2-(4-(6-((4-Cyano-2-fluorobenzyl)oxy)pyridin-2-yl)-2-(methylsulfonamido)benzyl)-1-(2-methoxyethyl)-1H-benzo[d]imidazole-6-carboxylic acid] are 1030 nM and 12.3 mL/min/kg.
`C[C@@]1(Cn2c(Cc3ccc(-c4cccc(OCc5ccc(C#N)cc5F)n4)cc3F)nc3ccc(C(=O)O)cc32)CCO1` [Example 105, (S)-2-(4-(6-((4-cyano-2-fluorobenzyl)oxy)pyridin-2-yl)-2-fluorobenzyl)-1-((2-methyloxetan-2-yl)methyl)-1H-benzo[d]imidazole-6-carboxylic acid]: the EC50 on GLP-1R was found to be 0.45 nM. Also, the “Predicted Hepatic Clearance (Pred. Cl.)” value in series [1] was 6.33 mL/min/kg.
Take `O=C(O)c1ccc2nc(Cc3cc(F)c(-c4cccc(OCc5ccc(Cl)cc5)n4)cc3F)n(C[C@@H]3CCO3)c2c1` [Example 808]: the EC50 on GLP-1R is 0.05 nM. Further, the “Predicted Hepatic Clearance (Pred. Cl.)” value in series [1] is 3.5 mL/min/kg.
Consider `COc1cc(C#N)ccc1COc1nccc(-c2cc(F)c(Cc3nc4ccc(C(=O)O)nc4n3CC3(CF)CC3)cc2F)n1` [Example 119, 2-(4-(2-((4-cyano-2-methoxybenzyl)oxy)pyrimidin-4-yl)-2,5-difluorobenzyl)-3-((1-(fluoromethyl)cyclopropyl)methyl)-3H-imidazo[4,5-b]pyridine-5-carboxylic acid], for which, on GLP-1R, the EC50 worked out at 0.56 nM. The “Predicted Hepatic Clearance (Pred. Cl.)” value in series [1] was less than 1.83 mL/min/kg.
For `N#Cc1ccc(COc2cccc(-c3ccc(Cc4nc5cccc(C(=O)O)c5n4CC4(CF)CC4)c(F)c3)n2)c(F)c1` [Example 224, 2-(4-(6-((4-cyano-2-fluorobenzyl)oxy)pyridin-2-yl)-2-fluorobenzyl)-1-((1-(fluoromethyl)cyclopropyl)methyl)-1H-benzo[d]imidazole-7-carboxylic acid], in that order: 23.6 nM and 7.5 mL/min/kg.
Regarding `COCCn1c(Cc2ccc(-c3cccc(OCc4ccc(C#N)cc4F)n3)cc2OC)nc2ccc(C(=O)O)cc21` [Example 33, 2-(4-(6-((4-cyano-2-fluorobenzyl)oxy)pyridin-2-yl)-2-methoxybenzyl)-1-(2-methoxyethyl)-1H-benzo[d]imidazole-6-carboxylic acid], at GLP-1R, the EC50 stood at 26.9 nM. Also, the “Predicted Hepatic Clearance (Pred. Cl.)” value in series [1] was 5 mL/min/kg.
As for `COCCn1c(Cc2ccc(-c3cccc(OCc4ccc(C#N)cc4F)n3)cc2C(F)(F)F)nc2ccc(C(=O)O)cc21` [Example 172, 2-(4-(6-((4-cyano-2-fluorobenzyl)oxy)pyridin-2-yl)-2-(trifluoromethyl)benzyl)-1-(2-methoxyethyl)-1H-benzo[d]imidazole-carboxylic acid], on GLP-1R, the EC50 was 38 nM. Besides, the “Predicted Hepatic Clearance (Pred. Cl.)” value in series [1] was 9.5 mL/min/kg.
Regarding `COCCn1c(C2(c3ccc(-c4cccc(OCc5ccc(C#N)cc5F)n4)cc3)CC2)nc2ccc(C(=O)O)cc21` [Example 32, 2-(1-(4-(6-((4-cyano-2-fluorobenzyl)oxy)pyridin-2-yl)phenyl)cyclopropyl)-1-(2-methoxyethyl)-1H-benzo[d]imidazole-6-carboxylic acid], the EC50 on GLP-1R was greater than 1000 nM. For the same compound, the “Predicted Hepatic Clearance (Pred. Cl.)” value in series [1] was 7.83 mL/min/kg.
